# Literature values, collected in patent US6548469B2, “Cleaning compositions” (Merck Patent GmbH, priority 1996, dated 2003).
# Conditions: use in cosmetics formulations on humans
smiles,measurement,value
CCCCN(CCC(=O)OCC)C(C)=O [ethyl 3-(N-butylacetamino)propionate],skin and mucosa tolerance,outstanding
same,"toxic, allergizing or sensitizing properties","without toxic, allergizing or sensitizing properties"
